Assay results as given in ChEMBL document CHEMBL1139874, “New diphenylacetylenes as probes for positron emission tomographic imaging of amyloid plaques” (J Med Chem, 2007).
pKi: −log10 of the molar value.

Key:
[1] = biological target: Amyloid-beta precursor protein (Homo sapiens, UniProt P05067); assay: Displacement of [125I]IMPY from human beta amyloid plaque in brain homogenates; type: tissue-based
Lung [2] = assay: Biodistribution in ICR mouse lung at 5 to 10 uCi, iv after 2 hrs; type: ADME, organism-based; settings: in vivo
Zone of skin [3] = assay: Biodistribution in ICR mouse skin at 5 to 10 uCi, iv after 1 hr; type: ADME, organism-based; settings: in vivo
Liver [4] = assay: Biodistribution in ICR mouse liver at 5 to 10 uCi, iv after 2 hrs; type: ADME, organism-based; settings: in vivo
Spleen [5] = assay: Biodistribution in ICR mouse spleen at 5 to 10 uCi, iv after 1 hr; type: ADME, organism-based; settings: in vivo
Liver [6] = assay: Biodistribution in ICR mouse liver at 5 to 10 uCi, iv after 2 mins; type: ADME, organism-based; settings: in vivo
Liver [7] = assay: Biodistribution in ICR mouse liver at 5 to 10 uCi, iv after 1 hr; type: ADME, organism-based; settings: in vivo
Heart [8] = assay: Biodistribution in ICR mouse heart at 5 to 10 uCi, iv after 30 mins; type: ADME, organism-based; settings: in vivo, 0.5 h
Blood [9] = assay: Biodistribution in ICR mouse blood at 5 to 10 uCi, iv after 30 mins; type: ADME, organism-based; settings: in vivo, 0.5 h
Brain [10] = assay: Biodistribution in ICR mouse brain at 5 to 10 uCi, iv after 30 mins; type: ADME, organism-based; settings: in vivo, 0.5 h
Spleen [11] = assay: Biodistribution in ICR mouse spleen at 5 to 10 uCi, iv after 30 mins; type: ADME, organism-based; settings: in vivo, 0.5 h
Muscle tissue [12] = assay: Biodistribution in ICR mouse muscle at 5 to 10 uCi, iv after 2 mins; type: ADME, organism-based; settings: in vivo
Muscle tissue [13] = assay: Biodistribution in ICR mouse muscle at 5 to 10 uCi, iv after 30 mins; type: ADME, organism-based; settings: in vivo, 0.5 h
Bone [14] = assay: Biodistribution in ICR mouse bone at 5 to 10 uCi, iv after 1 hr; type: ADME, organism-based, Bone element; settings: in vivo
Kidney [15] = assay: Biodistribution in ICR mouse kidney at 5 to 10 uCi, iv after 30 mins; type: ADME, organism-based; settings: in vivo, 0.5 h
Lung [16] = assay: Biodistribution in ICR mouse lung at 5 to 10 uCi, iv after 1 hr; type: ADME, organism-based; settings: in vivo
Kidney [17] = assay: Biodistribution in ICR mouse kidney at 5 to 10 uCi, iv after 2 mins; type: ADME, organism-based; settings: in vivo
Heart [18] = assay: Biodistribution in ICR mouse heart at 5 to 10 uCi, iv after 1 hr; type: ADME, organism-based; settings: in vivo
Liver [19] = assay: Biodistribution in ICR mouse liver at 5 to 10 uCi, iv after 30 mins; type: ADME, organism-based; settings: in vivo, 0.5 h
Heart [20] = assay: Biodistribution in ICR mouse heart at 5 to 10 uCi, iv after 2 mins; type: ADME, organism-based; settings: in vivo
Zone of skin [21] = assay: Biodistribution in ICR mouse skin at 5 to 10 uCi, iv after 2 mins; type: ADME, organism-based; settings: in vivo
Muscle tissue [22] = assay: Biodistribution in ICR mouse muscle at 5 to 10 uCi, iv after 2 hrs; type: ADME, organism-based; settings: in vivo
Zone of skin [23] = assay: Biodistribution in ICR mouse skin at 5 to 10 uCi, iv after 2 hrs; type: ADME, organism-based; settings: in vivo
Blood [24] = assay: Biodistribution in ICR mouse blood at 5 to 10 uCi, iv after 2 mins; type: ADME, organism-based; settings: in vivo
Brain [25] = assay: Biodistribution in ICR mouse brain at 5 to 10 uCi, iv after 1 hr; type: ADME, organism-based; settings: in vivo
Bone [26] = assay: Biodistribution in ICR mouse bone at 5 to 10 uCi, iv after 2 mins; type: ADME, organism-based, Bone element; settings: in vivo
Blood [27] = assay: Biodistribution in ICR mouse blood at 5 to 10 uCi, iv after 1 hr; type: ADME, organism-based; settings: in vivo
Heart [28] = assay: Biodistribution in ICR mouse heart at 5 to 10 uCi, iv after 2 hrs; type: ADME, organism-based; settings: in vivo
Spleen [29] = assay: Biodistribution in ICR mouse spleen at 5 to 10 uCi, iv after 2 hrs; type: ADME, organism-based; settings: in vivo
Muscle tissue [30] = assay: Biodistribution in ICR mouse muscle at 5 to 10 uCi, iv after 1 hr; type: ADME, organism-based; settings: in vivo
[31] = Partition coefficient, log P at pH 7.4; type: physicochemical; settings: octanol/water
Blood [32] = assay: Biodistribution in ICR mouse blood at 5 to 10 uCi, iv after 2 hrs; type: ADME, organism-based; settings: in vivo
Bone [33] = assay: Biodistribution in ICR mouse bone at 5 to 10 uCi, iv after 2 hrs; type: ADME, organism-based, Bone element; settings: in vivo
Spleen [34] = assay: Biodistribution in ICR mouse spleen at 5 to 10 uCi, iv after 2 mins; type: ADME, organism-based; settings: in vivo
Lung [35] = assay: Biodistribution in ICR mouse lung at 5 to 10 uCi, iv after 30 mins; type: ADME, organism-based; settings: in vivo, 0.5 h
Brain [36] = assay: Biodistribution in ICR mouse brain at 5 to 10 uCi, iv after 2 hrs; type: ADME, organism-based; settings: in vivo
Kidney [37] = assay: Biodistribution in ICR mouse kidney at 5 to 10 uCi, iv after 2 hrs; type: ADME, organism-based; settings: in vivo
Lung [38] = assay: Biodistribution in ICR mouse lung at 5 to 10 uCi, iv after 2 mins; type: ADME, organism-based; settings: in vivo
Zone of skin [39] = assay: Biodistribution in ICR mouse skin at 5 to 10 uCi, iv after 30 mins; type: ADME, organism-based; settings: in vivo, 0.5 h
Kidney [40] = assay: Biodistribution in ICR mouse kidney at 5 to 10 uCi, iv after 1 hr; type: ADME, organism-based; settings: in vivo
Bone [41] = assay: Biodistribution in ICR mouse bone at 5 to 10 uCi, iv after 30 mins; type: ADME, organism-based, Bone element; settings: in vivo, 0.5 h
Brain [42] = assay: Biodistribution in ICR mouse brain at 5 to 10 uCi, iv after 2 mins; type: ADME, organism-based; settings: in vivo

Chain of Amyloid-beta precursor protein (P05067 whole entry): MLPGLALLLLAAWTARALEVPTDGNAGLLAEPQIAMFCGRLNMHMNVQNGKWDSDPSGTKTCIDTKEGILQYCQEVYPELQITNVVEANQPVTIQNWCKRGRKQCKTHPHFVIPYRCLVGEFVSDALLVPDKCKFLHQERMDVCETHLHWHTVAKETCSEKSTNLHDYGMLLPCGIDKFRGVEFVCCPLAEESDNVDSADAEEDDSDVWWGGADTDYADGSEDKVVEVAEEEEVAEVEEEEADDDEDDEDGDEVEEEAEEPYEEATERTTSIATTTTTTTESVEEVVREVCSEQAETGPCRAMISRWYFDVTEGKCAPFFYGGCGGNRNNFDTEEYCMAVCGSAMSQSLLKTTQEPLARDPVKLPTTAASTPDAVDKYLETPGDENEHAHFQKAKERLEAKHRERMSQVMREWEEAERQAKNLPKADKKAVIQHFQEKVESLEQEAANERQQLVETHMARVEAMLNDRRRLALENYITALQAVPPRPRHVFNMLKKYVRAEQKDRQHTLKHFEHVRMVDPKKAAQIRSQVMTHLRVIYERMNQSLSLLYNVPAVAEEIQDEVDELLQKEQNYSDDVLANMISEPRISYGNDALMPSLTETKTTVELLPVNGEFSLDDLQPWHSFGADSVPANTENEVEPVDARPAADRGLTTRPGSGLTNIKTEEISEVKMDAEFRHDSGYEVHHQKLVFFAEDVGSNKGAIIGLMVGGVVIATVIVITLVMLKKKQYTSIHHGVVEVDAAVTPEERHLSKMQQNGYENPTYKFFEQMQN

## COc1ccc(C#Cc2ccc(N)cc2)cc1
[1]
  pKi: 8.54

## CN(C)c1ccc(C#Cc2ccc(OCCOCCOCCF)cc2)cc1
[1]
  pKi: 8.54

## Nc1ccc(C#Cc2ccc(OCCOCCOCCF)cc2)cc1
[1]
  pKi: 7.67

## CN(C)c1ccc(C#Cc2ccc(OCCOCCOCC[18F])cc2)cc1
Lung [2]
  Drug uptake: 1.47 % ID/g
Zone of skin [3]
  Drug uptake: 1.28 % ID/g
Liver [4]
  Drug uptake: 6.58 % ID/g
Spleen [5]
  Drug uptake: 1.13 % ID/g
Liver [6]
  Drug uptake: 23.2 % ID/g
Liver [7]
  Drug uptake: 8.13 % ID/g
Heart [8]
  Drug uptake: 1.49 % ID/g
Blood [9]
  Drug uptake: 2.97 % ID/g
Brain [10]
  Drug uptake: 1.57 % ID/g
Spleen [11]
  Drug uptake: 1.39 % ID/g
Muscle tissue [12]
  Drug uptake: 0.79 % ID/g
Muscle tissue [13]
  Drug uptake: 0.67 % ID/g
Bone [14]
  Drug uptake: 0.56 % ID/g
Kidney [15]
  Drug uptake: 2.68 % ID/g
Lung [16]
  Drug uptake: 1.26 % ID/g
Kidney [17]
  Drug uptake: 12.4 % ID/g
Heart [18]
  Drug uptake: 1.04 % ID/g
Liver [19]
  Drug uptake: 13.8 % ID/g
Heart [20]
  Drug uptake: 9.97 % ID/g
Zone of skin [21]
  Drug uptake: 0.68 % ID/g
Muscle tissue [22]
  Drug uptake: 0.42 % ID/g
Zone of skin [23]
  Drug uptake: 0.68 % ID/g
Blood [24]
  Drug uptake: 5.72 % ID/g
Brain [25]
  Drug uptake: 0.77 % ID/g
Bone [26]
  Drug uptake: 1.51 % ID/g
Blood [27]
  Drug uptake: 2.51 % ID/g
Heart [28]
  Drug uptake: 0.84 % ID/g
Spleen [29]
  Drug uptake: 1.17 % ID/g
Muscle tissue [30]
  Drug uptake: 0.51 % ID/g
[31]
  logD: 3.18
Blood [32]
  Drug uptake: 2.35 % ID/g
Bone [33]
  Drug uptake: 0.7 % ID/g
Spleen [34]
  Drug uptake: 4.61 % ID/g
Lung [35]
  Drug uptake: 2.26 % ID/g
Brain [36]
  Drug uptake: 0.42 % ID/g
Kidney [37]
  Drug uptake: 2.02 % ID/g
Lung [38]
  Drug uptake: 8.38 % ID/g
Zone of skin [39]
  Drug uptake: 1.41 % ID/g
Kidney [40]
  Drug uptake: 2.53 % ID/g
Bone [41]
  Drug uptake: 0.64 % ID/g
Brain [42]
  Drug uptake: 6.78 % ID/g

## CNc1ccc(C#Cc2ccc(OCCOCCOCCF)cc2)cc1
[1]
  pKi: 8.72

## CNc1ccc(C#Cc2ccc(OCCOCCF)cc2)cc1
[1]
  pKi: 8.92

## CN(C)c1ccc(C#Cc2ccc(OCCOCCF)cc2)cc1
[1]
  pKi: 8.30

## CNc1ccc(C#Cc2ccc(OCCOCCO)cc2)cc1
[1]
  pKi: 8.51

## Nc1ccc(C#Cc2ccc(N)cc2)cc1
[1]
  pKi: 7.12

## CNc1ccc(C#Cc2ccc(OCCOCCOCCO)cc2)cc1
[1]
  pKi: 8.35

## Oc1ccc(C#Cc2ccc(OCCOCCOCCF)cc2)cc1
[1]
  pKi: 7.78
